Assay results as given in PubChem BioAssay (NCI).
“And” between values parts separate entries of the source, which are not always exact repeats. Identical values can stand only once.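 The compound was tested at five concentrations on cells cultured in 96-well plates, with a 48-hour exposure period. GI50 is the concentration that inhibits growth by half. TGI: concentration producing complete growth inhibition.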

Experiments:
Assay in all cases: NCI tumour cell line growth inhibition, 48 h
786-0 renal = test system: 786-0 renal
ACHN renal = test system: ACHN renal
HL-60(TB) leukemia = test system: HL-60(TB) leukemia
HOP-62 NSCLC = test system: HOP-62 NSCLC
IGROV1 ovarian = test system: IGROV1 ovarian
MALME-3M melanoma = test system: MALME-3M melanoma
NCI-H226 lung = test system: NCI-H226 lung
NCI-H23 lung = test system: NCI-H23 lung
SF-539 CNS = test system: SF-539 CNS
UO-31 renal = test system: UO-31 renal

Structure (SMILES)	GI50 (786-0 renal)	TGI (786-0 renal)	GI50 (ACHN renal)	TGI (ACHN renal)	GI50 (HL-60(TB) leukemia)	TGI (HL-60(TB) leukemia)	GI50 (HOP-62 NSCLC)	TGI (HOP-62 NSCLC)	GI50 (IGROV1 ovarian)	TGI (IGROV1 ovarian)	GI50 (MALME-3M melanoma)	TGI (MALME-3M melanoma)	GI50 (NCI-H226 lung)	TGI (NCI-H226 lung)	GI50 (NCI-H23 lung)	TGI (NCI-H23 lung)	GI50 (SF-539 CNS)	TGI (SF-539 CNS)	GI50 (UO-31 renal)	TGI (UO-31 renal)
Cn1cc(-c2ncnc3ccc(-c4cnc(Cl)c(NS(C)(=O)=O)c4)cc23)c2ccccc21	1.44 µM	> 100 µM	0.781 µM	> 100 µM	0.538 µM	> 27.8 µM	0.791 µM	> 22.6 µM	0.0964 µM	0.852 µM	0.227 µM	2.48 µM	1.25 µM	74.7 µM	0.903 µM	> 52 µM	0.656 µM	4.3 µM	0.164 µM	5 µM
C[C@]12CC[C@@H]3c4ccc(O)cc4CC[C@H]3[C@@H]1CC(Cc1ccccc1)(Cc1ccccc1)C2=O	13.6 µM	26.7 µM	14.5 µM	27.9 µM	4.75 µM	20.9 µM	17.7 µM	32.9 µM	20.3 µM	41.5 µM	23.5 µM	48.9 µM	16 µM	31.3 µM	14.3 µM	28.2 µM	18.6 µM	36.8 µM	15.8 µM	31.3 µM
N#Cc1c(N)c(C(=O)c2ccc3c(c2)OCCO3)n2c1CCCC2	5.31 µM	> 100 µM	7.42 µM	> 100 µM	2.8 µM	> 27 µM	3.48 µM	> 100 µM	6.92 µM	> 100 µM	2.6 µM	> 100 µM	> 100 µM	> 100 µM	4.64 µM	> 100 µM	2.38 µM	7.63 µM	6.3 µM	> 100 µM
O=C(N/N=C/c1ccc([N+](=O)[O-])cc1)c1ccccc1Nc1ccnc(C(F)(F)F)c1	32.7 µM	> 100 µM	7.89 µM	73 µM	14.2 µM	47.3 µM	31.2 µM	95.1 µM	6.25 µM	19.2 µM	10.7 µM	33.6 µM	15.5 µM	74.3 µM	9.47 µM	> 100 µM	30.3 µM	> 100 µM	16.6 µM	59.6 µM
[Mn+3].[O-][Cl+3]([O-])([O-])O.[O-]c1ccccc1C=NCCN1CC1.[O-]c1ccccc1C=NCCN1CC1	27.2 µM	> 100 µM	23.5 µM	72.9 µM	14.7 µM	37 µM	28.6 µM	> 100 µM	20.9 µM	62.3 µM	19.7 µM	39.9 µM	12.3 µM	35.8 µM	15.4 µM	52.8 µM	30.6 µM	> 100 µM	> 100 µM	> 100 µM
C/C(=N\N)C(CN1CCOCC1)C(c1ccccc1)c1c(O)c2ccccc2oc1=O (stereo not given)		> 100 µM		> 100 µM		> 100 µM		> 100 µM		> 100 µM		> 100 µM		> 100 µM		> 100 µM		> 100 µM		> 100 µM
Clc1ccc(-c2nnc(-c3nn(-c4ccccc4)c4nc5ccccc5nc34)o2)cc1		> 100 µM		> 100 µM		80.5 µM		> 100 µM		> 100 µM		> 100 µM		> 100 µM		> 100 µM		> 100 µM		> 100 µM
C[C@]1(c2nc3c(C(N)=O)cccc3[nH]2)CCCN1	> 100 µM	> 100 µM	41.8 µM and > 100 µM	> 100 µM	66.1 µM and > 100 µM	> 100 µM	> 100 µM	> 100 µM	32.7 µM and 60.5 µM	> 100 µM	43.4 µM and > 85.8 µM	97.9 µM and > 100 µM	50.6 µM and > 74.5 µM	> 100 µM	> 100 µM	> 100 µM	79.7 µM and > 100 µM	> 100 µM	> 92.8 µM	> 100 µM
CCOc1ccc(Nc2ccnc3cc(Cl)ccc23)cc1	41.1 µM	> 100 µM	49.6 µM	> 100 µM	> 100 µM	> 100 µM	> 100 µM	> 100 µM	> 100 µM	> 100 µM	> 100 µM	> 100 µM	79.7 µM	> 100 µM	> 100 µM	> 100 µM	29.4 µM	> 100 µM	> 100 µM	> 100 µM
NC(CCl)=NCC12CC3CC(CC(C3)C1)C2	0.966 µM	13.2 µM	0.567 µM	11.6 µM	1.06 µM	3.78 µM	0.796 µM	11.4 µM	0.525 µM	31.7 µM	6.32 µM	27.3 µM	1.43 µM	11.3 µM	0.678 µM	4.17 µM	0.702 µM	11.2 µM	0.74 µM	15.8 µM
Cc1ccc([N+](=O)[O-])cc1NC(=O)C(=O)Cc1nc2ccc(C(=O)c3ccccc3)cc2[nH]c1=O		> 100 µM		> 100 µM		> 100 µM		> 100 µM		> 100 µM		> 100 µM		> 100 µM		> 100 µM		> 100 µM		> 100 µM
COc1cccc(/C=C2\N=C(Cl)OC2=O)c1O		> 100 µM		> 100 µM		> 100 µM		> 100 µM		> 100 µM		> 100 µM		> 100 µM		> 100 µM		> 100 µM		> 100 µM
CC1(C)CC[C@]2(C(=O)NCCNCCN)CC[C@]3(C)C(=CC[C@@H]4[C@@]5(C)CCC(=O)C(C)(C)[C@@H]5CC[C@]43C)[C@@H]2C1	1.71 µM	3.09 µM	1.77 µM	3.2 µM	2.07 µM	4.71 µM	2.05 µM	4.13 µM	1.69 µM	3.11 µM	1.83 µM	3.43 µM	11 µM	36.1 µM	1.9 µM	3.71 µM	1.72 µM	3.11 µM	1.65 µM	3.06 µM
